# Assay results taken from patent publication US8916702B2 (priority 2012, dated 2014).
# System: HCV pseudoparticles (genotype 1a HCV E1 and E2 envelope, H77C isolate)
# Assay: microbe, parasite or virus in culture
# Assay type: cell-based
# Details: Hepatitis C virus, Huh-7, 48 h, HCV pseudoparticles, Huh7 cells, luciferase 2 days after infection; average of duplicates
row,SMILES,EC50 [pM]
1,COC(=O)[C@H](CNC(=O)C(=O)Nc1cccc(-c2ncc[nH]2)c1)NC(=O)c1ccc(Nc2nc(NC3(c4ccc(Cl)cc4)CC3)nc(OCC(F)(F)F)n2)cc1 [Compound 3709],710
2,COC(=O)[C@H](CNC(=O)C(=O)Nc1ccc(C(F)(F)F)nc1)NC(=O)c1ccc(Nc2nc(NC3(c4ccc(Cl)cc4)CC3)nc(OCC(F)(F)F)n2)cc1 [Compound 3716],620
3,COC(=O)[C@H](CNC(=O)C(=O)Nc1cccc(CN2CCCC2)c1)NC(=O)c1ccc(Nc2nc(NC3(c4ccc(Cl)cc4)CC3)nc(OCC(F)(F)F)n2)cc1 [Compound 3723],1340
4,COC(=O)[C@H](CNC(=O)C(=O)Nc1cccc(-c2noc(C)n2)c1)NC(=O)c1ccc(Nc2nc(NC3(c4ccc(Cl)cc4)CC3)nc(OCC(F)(F)F)n2)cc1 [Compound 3730],600
5,COC(=O)[C@H](CNC(=O)C(=O)Nc1cccc(Oc2cccnc2)c1)NC(=O)c1ccc(Nc2nc(NC3(c4ccc(Cl)cc4)CC3)nc(OCC(F)(F)F)n2)cc1 [Compound 3737],1630
6,CCc1cccc(NC(=O)C(=O)NC[C@H](NC(=O)c2ccc(Nc3nc(NC4(c5ccc(Cl)cc5)CC4)nc(OCC(F)(F)F)n3)cc2)C(=O)Cl)c1 [Compound 3744],1180
7,O=C(NC[C@H](NC(=O)c1ccc(Nc2nc(NC3(c4ccc(Cl)cc4)CC3)nc(OCC(F)(F)F)n2)cc1)C(=O)O)C(=O)Nc1cccc(-c2ccccc2)c1 [Compound 3751],140

# Same assay, conditions: Hepatitis C virus, Huh-7, 48 h, read-out: Activity (EC50 class), HCV pseudoparticles, Huh7 cells, luciferase 2 days after infection; average of duplicates
row,SMILES,EC50 [pM]
1,COC(=O)[C@H](CNC(=O)C(=O)Nc1cccc(S(C)(=O)=O)c1)NC(=O)c1ccc(Nc2nc(NC3(c4ccc(Cl)cc4)CC3)nc(OCC(F)(F)F)n2)cc1 [Compound 3707],10 to 10000
2,COC(=O)[C@H](CNC(=O)C(=O)Nc1cccc(OC(F)F)c1)NC(=O)c1ccc(Nc2nc(NC3(c4ccc(Cl)cc4)CC3)nc(OCC(F)(F)F)n2)cc1 [Compound 3708],10 to 10000
3,COC(=O)[C@H](CNC(=O)C(=O)Nc1cccc(-c2ncc[nH]2)c1)NC(=O)c1ccc(Nc2nc(NC3(c4ccc(Cl)cc4)CC3)nc(OCC(F)(F)F)n2)cc1 [Compound 3709],10 to 10000
4,COC(=O)[C@H](CNC(=O)C(=O)Nc1cccc(S(=O)(=O)C(F)(F)F)c1)NC(=O)c1ccc(Nc2nc(NC3(c4ccc(Cl)cc4)CC3)nc(OCC(F)(F)F)n2)cc1 [Compound 3710],10 to 10000
5,COC(=O)[C@H](CNC(=O)C(=O)Nc1ccc(C)nc1)NC(=O)c1ccc(Nc2nc(NC3(c4ccc(Cl)cc4)CC3)nc(OCC(F)(F)F)n2)cc1 [Compound 3711],10 to 10000
6,COC(=O)[C@H](CNC(=O)C(=O)Nc1cccc(-c2ccncc2)c1)NC(=O)c1ccc(Nc2nc(NC3(c4ccc(Cl)cc4)CC3)nc(OCC(F)(F)F)n2)cc1 [Compound 3712],10 to 10000
7,COC(=O)[C@H](CNC(=O)C(=O)Nc1cccc(CCc2ccccn2)c1)NC(=O)c1ccc(Nc2nc(NC3(c4ccc(Cl)cc4)CC3)nc(OCC(F)(F)F)n2)cc1 [Compound 3713],10 to 10000
8,COC(=O)[C@H](CNC(=O)C(=O)Nc1cccc(Cc2ccccc2)c1)NC(=O)c1ccc(Nc2nc(NC3(c4ccc(Cl)cc4)CC3)nc(OCC(F)(F)F)n2)cc1 [Compound 3714],10 to 10000
9,COC(=O)[C@H](CNC(=O)C(=O)Nc1ccc(Oc2ccccc2)nc1)NC(=O)c1ccc(Nc2nc(NC3(c4ccc(Cl)cc4)CC3)nc(OCC(F)(F)F)n2)cc1 [Compound 3715],10 to 10000
10,COC(=O)[C@H](CNC(=O)C(=O)Nc1ccc(C(F)(F)F)nc1)NC(=O)c1ccc(Nc2nc(NC3(c4ccc(Cl)cc4)CC3)nc(OCC(F)(F)F)n2)cc1 [Compound 3716],10 to 10000
11,COC(=O)[C@H](CNC(=O)C(=O)Nc1cccc(S(=O)(=O)N2CCCCC2)c1)NC(=O)c1ccc(Nc2nc(NC3(c4ccc(Cl)cc4)CC3)nc(OCC(F)(F)F)n2)cc1 [Compound 3717],10 to 10000
12,COC(=O)[C@H](CNC(=O)C(=O)Nc1cccc(-c2csc(C)n2)c1)NC(=O)c1ccc(Nc2nc(NC3(c4ccc(Cl)cc4)CC3)nc(OCC(F)(F)F)n2)cc1 [Compound 3718],10 to 10000
13,COC(=O)[C@H](CNC(=O)C(=O)Nc1cccc(-c2nncn2C)c1)NC(=O)c1ccc(Nc2nc(NC3(c4ccc(Cl)cc4)CC3)nc(OCC(F)(F)F)n2)cc1 [Compound 3719],10 to 10000
14,COC(=O)[C@H](CNC(=O)C(=O)Nc1cccc(-c2ccc(Cl)cc2)c1)NC(=O)c1ccc(Nc2nc(NC3(c4ccc(Cl)cc4)CC3)nc(OCC(F)(F)F)n2)cc1 [Compound 3720],10 to 10000
15,COC(=O)[C@H](CNC(=O)C(=O)Nc1ccc(N2CCCC2)nc1)NC(=O)c1ccc(Nc2nc(NC3(c4ccc(Cl)cc4)CC3)nc(OCC(F)(F)F)n2)cc1 [Compound 3721],10 to 10000
16,COC(=O)[C@H](CNC(=O)C(=O)Nc1ccc(O)nc1)NC(=O)c1ccc(Nc2nc(NC3(c4ccc(Cl)cc4)CC3)nc(OCC(F)(F)F)n2)cc1 [Compound 3722],10 to 10000
17,COC(=O)[C@H](CNC(=O)C(=O)Nc1cccc(CN2CCCC2)c1)NC(=O)c1ccc(Nc2nc(NC3(c4ccc(Cl)cc4)CC3)nc(OCC(F)(F)F)n2)cc1 [Compound 3723],10 to 10000
18,COC(=O)[C@H](CNC(=O)C(=O)Nc1cccc(-c2nc(C)cs2)c1)NC(=O)c1ccc(Nc2nc(NC3(c4ccc(Cl)cc4)CC3)nc(OCC(F)(F)F)n2)cc1 [Compound 3725],10 to 10000
19,COC(=O)[C@H](CNC(=O)C(=O)Nc1cccc(Oc2ccccn2)c1)NC(=O)c1ccc(Nc2nc(NC3(c4ccc(Cl)cc4)CC3)nc(OCC(F)(F)F)n2)cc1 [Compound 3726],10 to 10000
20,CNS(=O)(=O)c1cccc(NC(=O)C(=O)NC[C@H](NC(=O)c2ccc(Nc3nc(NC4(c5ccc(Cl)cc5)CC4)nc(OCC(F)(F)F)n3)cc2)C(=O)OC)c1 [Compound 3727],10 to 10000
21,COC(=O)[C@H](CNC(=O)C(=O)Nc1cccc(-c2cccnc2)c1)NC(=O)c1ccc(Nc2nc(NC3(c4ccc(Cl)cc4)CC3)nc(OCC(F)(F)F)n2)cc1 [Compound 3728],10 to 10000
22,COC(=O)[C@H](CNC(=O)C(=O)Nc1cccc(-n2cnnc2)c1)NC(=O)c1ccc(Nc2nc(NC3(c4ccc(Cl)cc4)CC3)nc(OCC(F)(F)F)n2)cc1 [Compound 3729],10 to 10000
23,COC(=O)[C@H](CNC(=O)C(=O)Nc1cccc(-c2noc(C)n2)c1)NC(=O)c1ccc(Nc2nc(NC3(c4ccc(Cl)cc4)CC3)nc(OCC(F)(F)F)n2)cc1 [Compound 3730],10 to 10000
24,COC(=O)[C@H](CNC(=O)C(=O)Nc1cccc(-c2nnnn2C)c1)NC(=O)c1ccc(Nc2nc(NC3(c4ccc(Cl)cc4)CC3)nc(OCC(F)(F)F)n2)cc1 [Compound 3731],10 to 10000

row,SMILES,EC50 [pM]
1,COC(=O)[C@H](CNC(=O)C(=O)Nc1cccc(-c2c[nH]cn2)c1)NC(=O)c1ccc(Nc2nc(NC3(c4ccc(Cl)cc4)CC3)nc(OCC(F)(F)F)n2)cc1 [Compound 3732],10 to 10000
2,CCN(CC)CCOc1cccc(NC(=O)C(=O)NC[C@H](NC(=O)c2ccc(Nc3nc(NC4(c5ccc(Cl)cc5)CC4)nc(OCC(F)(F)F)n3)cc2)C(=O)OC)c1 [Compound 3733],10 to 10000
3,COC(=O)[C@H](CNC(=O)C(=O)Nc1cccc(-n2ccnc2)c1)NC(=O)c1ccc(Nc2nc(NC3(c4ccc(Cl)cc4)CC3)nc(OCC(F)(F)F)n2)cc1 [Compound 3734],10 to 10000
4,COC(=O)[C@H](CNC(=O)C(=O)Nc1ccc(OCCN(C)C)nc1)NC(=O)c1ccc(Nc2nc(NC3(c4ccc(Cl)cc4)CC3)nc(OCC(F)(F)F)n2)cc1 [Compound 3735],10 to 10000
5,COC(=O)[C@H](CNC(=O)C(=O)Nc1ccc(OCCN2CCCCC2)nc1)NC(=O)c1ccc(Nc2nc(NC3(c4ccc(Cl)cc4)CC3)nc(OCC(F)(F)F)n2)cc1 [Compound 3736],10 to 10000
6,COC(=O)[C@H](CNC(=O)C(=O)Nc1cccc(Oc2cccnc2)c1)NC(=O)c1ccc(Nc2nc(NC3(c4ccc(Cl)cc4)CC3)nc(OCC(F)(F)F)n2)cc1 [Compound 3737],10 to 10000
7,COC(=O)[C@H](CNC(=O)C(=O)Nc1cccc(CCC(N)=O)c1)NC(=O)c1ccc(Nc2nc(NC3(c4ccc(Cl)cc4)CC3)nc(OCC(F)(F)F)n2)cc1 [Compound 3738],10 to 10000
8,O=C(NC[C@H](NC(=O)c1ccc(Nc2nc(NC3(c4ccc(Cl)cc4)CC3)nc(OCC(F)(F)F)n2)cc1)C(=O)Cl)C(=O)Nc1ccc(Cl)nc1 [Compound 3739],10 to 10000
9,N#Cc1cccc(NC(=O)C(=O)NC[C@H](NC(=O)c2ccc(Nc3nc(NC4(c5ccc(Cl)cc5)CC4)nc(OCC(F)(F)F)n3)cc2)C(=O)Cl)c1 [Compound 3740],10 to 10000
10,O=C(NC[C@H](NC(=O)c1ccc(Nc2nc(NC3(c4ccc(Cl)cc4)CC3)nc(OCC(F)(F)F)n2)cc1)C(=O)Cl)C(=O)Nc1cccc(Cl)c1 [Compound 3741],10 to 10000
11,O=C(NC[C@H](NC(=O)c1ccc(Nc2nc(NC3(c4ccc(Cl)cc4)CC3)nc(OCC(F)(F)F)n2)cc1)C(=O)Cl)C(=O)Nc1cccc(OCc2ccccc2)c1 [Compound 3742],10 to 10000
12,Cc1cccc(NC(=O)C(=O)NC[C@H](NC(=O)c2ccc(Nc3nc(NC4(c5ccc(Cl)cc5)CC4)nc(OCC(F)(F)F)n3)cc2)C(=O)Cl)c1 [Compound 3743],10 to 10000
13,CCc1cccc(NC(=O)C(=O)NC[C@H](NC(=O)c2ccc(Nc3nc(NC4(c5ccc(Cl)cc5)CC4)nc(OCC(F)(F)F)n3)cc2)C(=O)Cl)c1 [Compound 3744],10 to 10000
14,NC(=O)c1cccc(NC(=O)C(=O)NC[C@H](NC(=O)c2ccc(Nc3nc(NC4(c5ccc(Cl)cc5)CC4)nc(OCC(F)(F)F)n3)cc2)C(=O)Cl)c1 [Compound 3745],10 to 10000
15,C#Cc1cccc(NC(=O)C(=O)NC[C@H](NC(=O)c2ccc(Nc3nc(NC4(c5ccc(Cl)cc5)CC4)nc(OCC(F)(F)F)n3)cc2)C(=O)Cl)c1 [Compound 3746],10 to 10000
16,O=C(NC[C@H](NC(=O)c1ccc(Nc2nc(NC3(c4ccc(Cl)cc4)CC3)nc(OCC(F)(F)F)n2)cc1)C(=O)Cl)C(=O)Nc1cccc(C(=O)Nc2ccccc2)c1 [Compound 3747],10 to 10000
17,O=C(NC[C@H](NC(=O)c1ccc(Nc2nc(NC3(c4ccc(Cl)cc4)CC3)nc(OCC(F)(F)F)n2)cc1)C(=O)Cl)C(=O)Nc1cccc(C(=O)c2ccccc2)c1 [Compound 3748],10 to 10000
18,O=C(NC[C@H](NC(=O)c1ccc(Nc2nc(NC3(c4ccc(Cl)cc4)CC3)nc(OCC(F)(F)F)n2)cc1)C(=O)O)C(=O)Nc1cccc(OC(F)(F)F)c1 [Compound 3749],10 to 10000
19,O=C(NC[C@H](NC(=O)c1ccc(Nc2nc(NC3(c4ccc(Cl)cc4)CC3)nc(OCC(F)(F)F)n2)cc1)C(=O)O)C(=O)Nc1cccc(Oc2ccccc2)c1 [Compound 3750],10 to 10000
20,O=C(NC[C@H](NC(=O)c1ccc(Nc2nc(NC3(c4ccc(Cl)cc4)CC3)nc(OCC(F)(F)F)n2)cc1)C(=O)O)C(=O)Nc1cccc(-c2ccccc2)c1 [Compound 3751],10 to 10000
21,O=C(NC[C@H](NC(=O)c1ccc(Nc2nc(NC3(c4ccc(Cl)cc4)CC3)nc(OCC(F)(F)F)n2)cc1)C(=O)O)C(=O)Nc1cccc(-c2cnco2)c1 [Compound 3752],10 to 10000
22,O=C(NC[C@H](NC(=O)c1ccc(Nc2nc(NC3(c4ccc(Cl)cc4)CC3)nc(OCC(F)(F)F)n2)cc1)C(=O)O)C(=O)Nc1ccc(Oc2ccc(Cl)cc2Cl)cc1 [Compound 3753],10 to 10000
23,CC(C)(C)c1ccc(Oc2ccc(NC(=O)C(=O)NC[C@H](NC(=O)c3ccc(Nc4nc(NC5(c6ccc(Cl)cc6)CC5)nc(OCC(F)(F)F)n4)cc3)C(=O)O)cn2)cc1 [Compound 3754],10 to 10000
24,O=C(NC[C@H](NC(=O)c1ccc(Nc2nc(NC3(c4ccc(Cl)cc4)CC3)nc(OCC(F)(F)F)n2)cc1)C(=O)O)C(=O)Nc1ccc(Oc2cccnc2)nc1 [Compound 3755],10 to 10000
